{
  "source": "paper PMC4428071",
  "about": "“Structural basis for epitope masking and strain specificity of a conserved epitope in an intrinsically disordered malaria vaccine candidate” (Scientific Reports, 2015)",
  "biological_target": "6D8 scFv",
  "experiment": "Isothermal titration calorimetry (ITC) of MSP2 and peptides into 6D8 scFv",
  "type": "binding, mouse",
  "conditions": "ITC into 6D8 scFv; 20 mM sodium phosphate, 150 mM NaCl, pH 7.4, 25°C; scFv 20 µM, titrant from 200 µM stocks; error estimates from replicate titrations against 6D8 scFv and mAb (n = 3–5); limit of determinable affinities approx. 5 nM",
  "source_text": "The interaction between 6D8 and MSP2, was examined further using isothermal titration calorimetry (ITC). […] Full-length recombinant MSP2 binds 6D8 scFv with lower affinity, permitting quantification by ITC. Even though 6D8 recognizes a fully conserved epitope in MSP2, the affinities of 6D8 scFv for full-length 3D7 and FC27 MSP2 differ by as much as 5-fold (Fig. 3C,D). To explore the basis of this strain-specificity, we synthesized peptides encompassing the minimal 6D8 epitope and extending C-terminally into the variable region. […] Identical affinities were observed when 6D8 IgG was used in place of the scFv (Fig. S4).\nThe affinity of 6D8 IgG and scFv for synthetic peptides and recombinant MSP2 was determined by ITC (Microcal ITC-200, GE Healthcare) and SPR (Biacore T200, GE Healthcare) using a Mouse Antibody Capture kit (GE Healthcare) (SI Materials and methods). Antibody binding to lipid-tethered MSP2 was assessed SPR using an L1 chip (GE Healthcare). Vesicles of POPC containing 1 mol % DOGS-NTA were adsorbed onto the chip, and loaded with Ni^2+ and then FC27 MSP2–6His. […]\nMSP2 peptides were purified on a reverse-phase C18 column (Zorbax, 10 x 300 mm) using a linear gradient of 5 to 40% of solvent B (90% acetonitrile / 9.9% water / 0.1% TFA) against solvent A (0.1% TFA in water) over 40 min. The purity of MSP2 peptides was assessed by mass spectrometry (LC-MS). […]",
  "data": [
    {"substance": "Ac-NAYNMSIRR-NH2 [MSP2_14-22]", "values": [
      {"measurement": "Kd", "result": "~5", "unit": "nM"}
    ]}
  ]
}
